In this data set the test system is Huh 7 cells. In words: Cell binding analysis of Cy5-labeled aptamers (FACS). Conditions: three vs five gemcitabines bound, method of Example 2-1, FIG. 19. It counts as cell-based. As for the experimental part:
The 12-10 aptamer and 5 aptamer libraries prepared by truncating the 12-10 aptamer at various lengths [12-10 (40-mer), 12-12 (35-mer), 12-11 (29-mer), 12-13 (24-mer), 12-14 (23-mer), 12-15 (18-mer)] were subjected to cell binding analysis. Each aptamer sequence was labeled with Cy5 at the 5′ end thereof according to the method of Example 1-1. Huh 7 cells (ATCC, Rockville, MD, USA) were seeded at a density of 2×10^6/mL in a 100 mm^2 culture plate, and cultured using a DMEM medium (Gibco, Grand Island, NY, USA) containing 10% FBS (Gibco, Grand Island, NY, USA) and 1% antibiotics (penicillin/streptomycin) under conditions of 5% CO2 and 37° C. 5 μM of the aptamer stock was mixed with 5×SB18 buffer to prepare the aptamer at a concentration of 4 μM, and heated at 95° C. for 5 min, and then cooled at room temperature for 15 min or more. 4 μM of the aptamer was diluted with KRPH buffer (20 mM HEPES, 5 mM KH2PO4, 1 mM MgSO4, 1 mM CaCl2, 136 mM NaCl, 4.7 mM KCl, pH 7.4) at a concentration of 25 nM. The culture medium was removed from the cultured cells, and 4 mL of phosphate-buffered saline (PBS) was added thereto, followed by washing, and then 4 mL of PBS was removed. 4 mL of cold PBS or warm PBS was added, and cells were scraped using a scraper, and collected in tubes, followed by pipetting. The cells were divided and added to fluorescence-activated cell sorting (FAC) tubes according to the number of samples, followed by centrifugation at 4° C. and 2000 rpm for 4 min. After removing the supernatant, each 500 μL of 25 nM aptamer and control (31-08 (40-mer) aptamer) were added to […] of KRPH buffer, followed by pipetting. The tube was covered with foil to block the light, followed by incubation at 4° C. for 30 min. After incubation, centrifugation was performed at 4° C. and 2000 rpm for 4 min, and the supernatant was removed. 2 mL of cold 1×PBS was added, washed, centrifuged at 4° C. and 2000 rpm for 4 min, and the supernatant was removed. This process was repeated three times. […] Cy5 was measured at […]. […]

Turning to “Combi 5 G(3) (DNA GNGAANGCGNNGAANNANWYSSSNNCAGNCANCAC; gemcitabines, 2'-OMe, 2'-F, BzdU, 3' idT; Combi 5 G(3); (1)..(1) G is 2-O-Methoxy-DNA.; (2)..(2) n is BzdU.; (3)..(3) G is 2-O-Methoxy-DNA.; (4)..(4) A is 2-Fluorine-DNA.; (5)..(5) A is 2-Fluorine-DNA.; (6)..(6) n is BzdU.; (10)..(10) n is BzdU.; (11)..(11) n is BzdU.; (12)..(12) G is 2-Fluorine-DNA.; (13)..(13) A is 2-Fluorine-DNA.; (14)..(14) A is 2-O-Methoxy-DNA.; (15)..(15) n is BzdU.; (16)..(16) n is BzdU.; (17)..(17) A is 2-O-Methox)”, the cell binding ability result is on record as “excellent cell binding ability”.

(Values after patent US12668803B2, “Glypican-3-specific modified aptamer and use thereof” (APTAMER SCIENCES INC., priority 2019, dated 2026).)
